Data reported in patent publication US4914086A, “Method for treating African human and veterinary trypanosomiases” (priority 1987, dated 1990).

Legend:
Pneumocystis Carinii = conditions: tissue culture; cited from earlier work
T. brucei subsp. = conditions: cited from earlier work
mammalian cells = conditions: cited from earlier work
in vivo = test: in vivo
Method: Swiss-Webster (25-30 g) mice were used throughout. In the EATRO 110 model, groups of 100 mice were infected (10^5 trypanosomes/mouse) and the infection was allowed to develop 24 hours before commencing therapy. Animals were divided into groups of 5 before treatment. Cured animals survived >30 days beyond deaths of controls. All compounds were administered by i.p. injection.

T. B. gambiense = conditions: cited from earlier work
T. b. brucei EATRO 110 = test: Delayed administration of 9-DINO on the EATRO 110 model (Table 2); format: in vivo, Trypanosoma brucei brucei (in Swiss-Webster mice); conditions: for # Cured/Total / % Cured: 3 days
Description: T. b. brucei EATRO 110 isolate was maintained as described (Bacchi, C. J., H. C. Nathan, S. H. Hutner, P. P. McCann and A. Sjoerdsma; Polyamine metabolism: a potential chemotherapeutic target in trypanosomes. Science 210: 332-334, 1980). It produces an acute, rapidly fatal parasitemia which is lethal to mice 3-5 days after inoculation. Two T. B. brucei strains, TREU 667 and LUMP 1001 developed by Jennings and coworkers (Jennings, F. W., D. D. Whitelaw and G. M. Urquhart; The relationship between duration of infection with Trypanosoma brucei in mice and the efficacy of chemotherapy. Parasitology 75: 143-153, 1977/Jennings, F. W. and G. D. Gray; Relapsed parasitemia following chemotherapy of chronic T. brucei infections in mice and its relation to cerebral trypanosomes; Contr. Microbiol. Immunol. 7 147-154, 1983) were used as CNS models. Both produce infections which are refractory to Berenil® (diminazene aceturate) and develop within 21 days after inoculation. They are not usually fatal until >40 days after inoculation. LUMP 1001 causes a more virulent CNS infection than TREU 667, and is regarded as more difficult to cure (Jennings, F. W. and G. D. Gray. Relapsed parasitemia following chemotherapy of chronic T. brucei infections in mice and its relation to cerebral trypanosomes. Contr. Microbiol. Immunol. 7 147-154, 1983).
Swiss-Webster (25-30 g) mice were used throughout. […] Animals were divided into groups of 5 before treatment. Cured animals survived >30 days beyond deaths of controls. All compounds were administered by i.p. injection.

T. b. brucei = conditions: cited from earlier work
[1] = treatment begun 48 h post infection, 25 mg/kg i.p. daily
[2] = treatment begun 48 h post infection, 50 mg/kg i.p. daily
[3] = treatment begun 48 h post infection, 100 mg/kg i.p. daily
[4] = treatment begun 72 h post infection, 25 mg/kg i.p. daily, only fully treated animals
[5] = treatment begun 72 h post infection, 50 mg/kg i.p. daily, only fully treated animals
[6] = treatment begun 72 h post infection, 100 mg/kg i.p. daily, only fully treated animals

O=c1[nH]cnc2c([C@@H]3O[C@H](CO)[C@@H](O)[C@H]3O)c[nH]c12 [9-DINO, 7-beta-D-ribofuranosyl-4-oxo-3H, 5H-pyrrolo (3,2-d) pyrimidine]
activity in words (Pneumocystis Carinii): active | metabolism in words (T. brucei subsp.): can be aminated by T. brucei subsp. and converted to analogs of ATP | cleavage into ribose and purine analog moieties (mammalian cells): cannot be cleaved into ribose and purine analog moieties | dose at which toxicity appeared (in vivo; mouse, in vivo): 400 mg/kg | toxicity in words (in vivo; prolonged (i.e. 1 week) dose regimens): no evidence of toxicity | metabolism in words (T. B. gambiense): metabolized to 9-deaza-ATP | efficacy in words (T. b. brucei EATRO 110; treatment at 48 h post infection, 25 to 100 mg/kg): completely effective | # Cured/Total (T. b. brucei EATRO 110; [1]): 5/5 | % Cured (T. b. brucei EATRO 110; [1]): 100% | # Cured/Total (T. b. brucei EATRO 110; [2]): 5/5 | % Cured (T. b. brucei EATRO 110; [2]): 100% | # Cured/Total (T. b. brucei EATRO 110; [3]): 5/5 | % Cured (T. b. brucei EATRO 110; [3]): 100% | # Cured/Total (T. b. brucei EATRO 110; [4]): 6/10 | % Cured (T. b. brucei EATRO 110; [4]): 60% | # Cured/Total (T. b. brucei EATRO 110; [5]): 6/10 | % Cured (T. b. brucei EATRO 110; [5]): 60% | # Cured/Total (T. b. brucei EATRO 110; [6]): 6/9 | % Cured (T. b. brucei EATRO 110; [6]): 67% | activity in words (T. b. brucei EATRO 110; treatment delayed 48 or 72 h post infection): active

Nc1ncnc2c1ncn2[C@@H]1O[C@H](C[C@@H](N)CC[C@H](N)C(=O)O)[C@@H](O)[C@H]1O [Sinefungin, 6,9-Diamino-1-(6-amino-9H-purin-9-yl)-1,5,6,7,8,9-hexadeoxy-beta-D-ribo-decofuranuronic acid]
% curable (T. b. brucei; 3×5 mg/kg dose, 8 hour intervals): 100% | cure in words (T. b. brucei; multiple daily doses, Dube et al.): cured
